Target: human F508del-CFTR (Homo sapiens, UniProt P13569, DEL508-508)
Assay: F508del-CFTR cell surface expression (corrector activity), DiscoveRx ß-galactosidase complementation chemiluminescence assay in recombinant U2OS cell line;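 note: U2OS cells co-expressing ProLink-tagged F508del-CFTR and a membrane-anchored enzyme acceptor, where more surface CFTR restores β-galactosidase activity measured by chemiluminescence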
Details: U2OS cells, 16h compound incubation; for EC50: EC50, F508del-CFTR cell surface expression, geomean of several measurements; for Emax: U2OS, in relation to the Emax of the corrector lumacaftor (=100%), arithmetic mean

human F508del-CFTR, sequence (P13569 with tags, fused parts or gaps DEL508-508): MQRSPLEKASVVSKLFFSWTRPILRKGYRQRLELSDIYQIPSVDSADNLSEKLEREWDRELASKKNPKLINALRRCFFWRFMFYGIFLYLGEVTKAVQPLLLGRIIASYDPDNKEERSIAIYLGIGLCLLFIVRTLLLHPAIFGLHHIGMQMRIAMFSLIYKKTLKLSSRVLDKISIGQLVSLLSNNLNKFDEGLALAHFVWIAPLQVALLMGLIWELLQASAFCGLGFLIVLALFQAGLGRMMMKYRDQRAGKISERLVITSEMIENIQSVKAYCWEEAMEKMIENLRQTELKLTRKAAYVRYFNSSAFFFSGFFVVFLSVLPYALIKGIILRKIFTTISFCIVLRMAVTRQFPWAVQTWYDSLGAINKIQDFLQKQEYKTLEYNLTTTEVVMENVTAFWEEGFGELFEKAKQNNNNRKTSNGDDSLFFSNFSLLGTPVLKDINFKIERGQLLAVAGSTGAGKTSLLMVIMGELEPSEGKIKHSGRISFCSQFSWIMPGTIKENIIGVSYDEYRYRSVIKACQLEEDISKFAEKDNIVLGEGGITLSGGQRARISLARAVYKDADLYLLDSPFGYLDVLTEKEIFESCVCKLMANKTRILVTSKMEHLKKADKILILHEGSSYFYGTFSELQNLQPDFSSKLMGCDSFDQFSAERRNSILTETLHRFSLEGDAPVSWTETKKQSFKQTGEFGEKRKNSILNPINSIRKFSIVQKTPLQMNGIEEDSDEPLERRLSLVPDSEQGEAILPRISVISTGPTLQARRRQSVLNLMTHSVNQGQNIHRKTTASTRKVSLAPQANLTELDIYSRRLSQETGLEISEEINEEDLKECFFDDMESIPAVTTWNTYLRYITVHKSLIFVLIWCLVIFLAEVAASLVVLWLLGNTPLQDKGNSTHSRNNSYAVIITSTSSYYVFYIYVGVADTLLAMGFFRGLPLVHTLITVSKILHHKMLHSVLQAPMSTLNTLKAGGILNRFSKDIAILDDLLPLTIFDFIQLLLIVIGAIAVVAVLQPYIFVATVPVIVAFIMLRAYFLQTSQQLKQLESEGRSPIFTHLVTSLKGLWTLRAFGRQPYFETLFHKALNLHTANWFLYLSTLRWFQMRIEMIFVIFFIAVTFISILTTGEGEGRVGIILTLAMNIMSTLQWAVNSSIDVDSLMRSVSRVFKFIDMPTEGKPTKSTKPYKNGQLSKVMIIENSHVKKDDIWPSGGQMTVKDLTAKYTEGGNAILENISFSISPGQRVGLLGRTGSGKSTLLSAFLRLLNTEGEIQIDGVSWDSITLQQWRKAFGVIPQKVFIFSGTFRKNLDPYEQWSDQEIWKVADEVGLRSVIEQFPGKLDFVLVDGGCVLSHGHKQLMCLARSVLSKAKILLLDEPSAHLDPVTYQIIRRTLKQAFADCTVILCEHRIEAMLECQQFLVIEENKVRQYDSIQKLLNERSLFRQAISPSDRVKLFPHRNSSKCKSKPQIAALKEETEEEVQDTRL

Row | EC50 [nM] | Emax [%] | SMILES
1 | 294 | 433 | COc1cc(CCNC(=O)[C@@H]2CC(=O)N(C)[C@@H](CC(C)C)C(=O)N(C)[C@H](Cc3nc(-c4ccc(F)cn4)no3)C(=O)N[C@H](Cc3ccccc3)COc3ccc4cnc(C)cc4c3C(=O)N2)on1 [Example 906, (3S,7S,10R,13R)-13-benzyl-10-((3-(5-fluoropyridin-2-yl)-1,2,4-oxadiazol-5-yl)methyl)-7-isobutyl-N-(2-(3-methoxyisoxazol-5-yl)ethyl)-6,9,20-trimethyl-1,5,8,11-tetraoxo-1,2,3,4,5,6,7,8,9,10,11,12,13,14-tetradecahydro-[1]oxa[4,7,10,14]tetraazacycloheptadecino[16,17-f]isoquinoline-3-carboxamide]
2 | 425 | 454 | Cc1cc2c3c(ccc2cn1)OC[C@@H](Cc1ccccc1)NC(=O)[C@@H](Cc1nc(-c2ccc(F)cn2)no1)N(C)C(=O)[C@H](CC(C)C)N(C)C(=O)C[C@@H](C(=O)NCCn1nnc(C2CC2)n1)NC3=O [Example 907]
3 | 94 | 401 | CC(C)C[C@H]1C(=O)N(C)[C@H](Cc2nc(C(F)(F)F)no2)C(=O)N[C@H](Cc2ccccc2)COc2ccc3ncc(F)cc3c2C(=O)N[C@H](C(=O)NCCc2nc3ncccn3n2)CC(=O)N1C [Example 908, (3S,7S,10R,13R)-N-(2-([1,2,4]triazolo[1,5-a]pyrimidin-2-yl)ethyl)-13-benzyl-20-fluoro-7-isobutyl-6,9-dimethyl-1,5,8,11-tetraoxo-10-((3-(trifluoromethyl)-1,2,4-oxadiazol-5-yl)methyl)-1,2,3,4,5,6,7,8,9,10,11,12,13,14-tetradecahydro-[1]oxa[4,7,10,14]tetraazacycloheptadecino[16,17-f]quinoline-3-carboxamide]
4 | 17 | 430 | COc1cc(CCNC(=O)[C@@H]2CC(=O)N(C)[C@@H](CC(C)C)C(=O)N(C)[C@H](Cc3nc(C(F)(F)F)no3)C(=O)N[C@H](Cc3ccccc3)COc3cc(C)c4ncccc4c3C(=O)N2)on1 [Example 909, (3S,7S,10R,13R)-13-benzyl-7-isobutyl-N-(2-(3-methoxyisoxazol-5-yl)ethyl)-6,9,17-trimethyl-1,5,8,11-tetraoxo-10-((3-(trifluoromethyl)-1,2,4-oxadiazol-5-yl)methyl)-1,2,3,4,5,6,7,8,9,10,11,12,13,14-tetradecahydro-[1]oxa[4,7,10,14]tetraazacycloheptadecino[16,17-f]quinoline-3-carboxamide]
5 | 477 | 423 | CCOCC[C@@H]1C(=O)N[C@H](Cc2ccccc2)COc2cc(C)nc(OC)c2C(=O)N[C@H](C(=O)NCCc2cc(C3CC3)no2)CC(=O)N(C)[C@@H](CC(C)C)C(=O)N1C [Example 910, (3R,6R,9S,13S)-3-benzyl-N-(2-(3-cyclopropylisoxazol-5-yl)ethyl)-6-(2-ethoxyethyl)-9-isobutyl-16-methoxy-7,10,18-trimethyl-5,8,11,15-tetraoxo-2,3,4,5,6,7,8,9,10,11,12,13,14,15-tetradecahydropyrido[3,4-p][1]oxa[4,7,10,14]tetraazacycloheptadecine-13-carboxamide]
6 | 531 | 341 | COc1noc(CCNC(=O)[C@@H]2CC(=O)N(C)[C@@H](CC(C)C)C(=O)N(C)C3(CC3)C(=O)N[C@H](Cc3ccccc3)COc3ccc4ncc(F)cc4c3C(=O)N2)n1 [Example 911, (3′S,7′S,13′R)-13′-benzyl-20′-fluoro-7′-isobutyl-N-(2-(3-methoxy-1,2,4-oxadiazol-5-yl)ethyl)-6′,9′-dimethyl-1′,5′,8′,11′-tetraoxo-2′,3′,4′,5′,6′,7′,8′,9′,11′,12′,13′,14′-dodecahydro-1′H-spiro[cyclopropane-1,10′-[1]oxa[4,7,10,14]tetraazacycloheptadecino[16,17-f]quinoline]-3′-carboxamide]
7 | 272 | 332 | COc1cc(CCNC(=O)[C@@H]2CC(=O)N(C)[C@@H](CC(C)C)C(=O)N3CCCC[C@@H]3C(=O)N[C@H](Cc3ccccc3)COc3ccc4ncccc4c3C(=O)N2)on1 [Example 912, (9S,13S,19aR,22R)-22-benzyl-13-isobutyl-N-(2-(3-methoxyisoxazol-5-yl)ethyl)-12-methyl-7,11,14,20-tetraoxo-7,8,9,10,11,12,13,14,17,18,19,19a,20,21,22,23-hexadecahydro-16H-pyrido[2′,1′:6,7][1]oxa[4,7,10,14]tetraazacycloheptadecino[16,17-f]quinoline-9-carboxamide]
8 | 294 | 390 | CCOCC[C@@H]1C(=O)N[C@H](Cc2ccccc2)COc2ccc3cnc(C)cc3c2C(=O)N[C@H](C(=O)NCCc2cc(OC)no2)CC(=O)N(C)[C@@H](CC(C)C)C(=O)N1C [Example 913, (3S,7S,10R,13R)-13-benzyl-10-(2-ethoxyethyl)-7-isobutyl-N-(2-(3-methoxyisoxazol-5-yl)ethyl)-6,9,20-trimethyl-1,5,8,11-tetraoxo-1,2,3,4,5,6,7,8,9,10,11,12,13,14-tetradecahydro-[1]oxa[4,7,10,14]tetraazacycloheptadecino[16,17-f]isoquinoline-3-carboxamide]
9 | 368 | 358 | CCOCC[C@@H]1C(=O)N[C@H](Cc2ccccc2)COc2ccc3cnc(C)cc3c2C(=O)N[C@H](C(=O)NCCc2nc(OC)no2)CC(=O)N(C)[C@@H](CC(C)C)C(=O)N1C [Example 914, (3S,7S,10R,13R)-13-benzyl-10-(2-ethoxyethyl)-7-isobutyl-N-(2-(3-methoxy-1,2,4-oxadiazol-5-yl)ethyl)-6,9,20-trimethyl-1,5,8,11-tetraoxo-1,2,3,4,5,6,7,8,9,10,11,12,13,14-tetradecahydro-[1]oxa[4,7,10,14]tetraazacycloheptadecino[16,17-f]isoquinoline-3-carboxamide]
10 | 334 | 361 | CCOCC[C@@H]1C(=O)N[C@H](Cc2ccccc2)COc2ccc3cnc(C)cc3c2C(=O)N[C@H](C(=O)NCCn2nnc(C3CC3)n2)CC(=O)N(C)[C@@H](CC(C)C)C(=O)N1C [Example 915, (3S,7S,10R,13R)-13-benzyl-N-(2-(5-cyclopropyl-2H-tetrazol-2-yl)ethyl)-10-(2-ethoxyethyl)-7-isobutyl-6,9,20-trimethyl-1,5,8,11-tetraoxo-1,2,3,4,5,6,7,8,9,10,11,12,13,14-tetradecahydro-[1]oxa[4,7,10,14]tetraazacycloheptadecino[16,17-f]isoquinoline-3-carboxamide]
11 | 196 | 470 | COc1noc(CCNC(=O)[C@@H]2CC(=O)N(C)[C@@H](CC(C)C)C(=O)N(C)[C@H](Cc3nc(-c4ccc(F)cn4)no3)C(=O)N[C@H](Cc3ccccc3)COc3ccc4ncc(F)cc4c3C(=O)N2)n1 [Example 916, (3S,7S,10R,13R)-13-benzyl-20-fluoro-10-((3-(5-fluoropyridin-2-yl)-1,2,4-oxadiazol-5-yl)methyl)-7-isobutyl-N-(2-(3-methoxy-1,2,4-oxadiazol-5-yl)ethyl)-6,9-dimethyl-1,5,8,11-tetraoxo-1,2,3,4,5,6,7,8,9,10,11,12,13,14-tetradecahydro-[1]oxa[4,7,10,14]tetraazacycloheptadecino[16,17-f]quinoline-3-carboxamide]
12 | 487 | 398 | COc1noc(CCNC(=O)[C@@H]2CC(=O)N(C)[C@@H](CC(C)C)C(=O)N(C)[C@H](Cc3nc(-c4ccc(F)cn4)no3)C(=O)N[C@H](Cc3ccccc3)COc3ccc4cnc(C)cc4c3C(=O)N2)n1 [Example 917, (3S,7S,10R,13R)-13-benzyl-10-((3-(5-fluoropyridin-2-yl)-1,2,4-oxadiazol-5-yl)methyl)-7-isobutyl-N-(2-(3-methoxy-1,2,4-oxadiazol-5-yl)ethyl)-6,9,20-trimethyl-1,5,8,11-tetraoxo-1,2,3,4,5,6,7,8,9,10,11,12,13,14-tetradecahydro-[1]oxa[4,7,10,14]tetraazacycloheptadecino[16,17-f]isoquinoline-3-carboxamide]
13 | 42 | 462 | COc1noc(CCNC(=O)[C@@H]2CC(=O)N(C)[C@@H](CC(C)C)C(=O)N(C)[C@H](Cc3nc(C(F)(F)F)no3)C(=O)N[C@H](Cc3ccccc3)COc3ccc4cnc(C)cc4c3C(=O)N2)n1 [Example 918, (3S,7S,10R,13R)-13-benzyl-7-isobutyl-N-(2-(3-methoxy-1,2,4-oxadiazol-5-yl)ethyl)-6,9,20-trimethyl-1,5,8,11-tetraoxo-10-((3-(trifluoromethyl)-1,2,4-oxadiazol-5-yl)methyl)-1,2,3,4,5,6,7,8,9,10,11,12,13,14-tetradecahydro-[1]oxa[4,7,10,14]tetraazacycloheptadecino[16,17-f]isoquinoline-3-carboxamide]
14 | 104 | 443 | COc1noc(CCNC(=O)[C@@H]2CC(=O)N(C)[C@@H](CC(C)C)C(=O)N(C)[C@H](Cc3nc(C(F)(F)F)no3)C(=O)N[C@H](Cc3ccccc3)COc3cc(C)nc(OC)c3C(=O)N2)n1 [Example 919, (3R,6R,9S,13S)-3-benzyl-9-isobutyl-16-methoxy-N-(2-(3-methoxy-1,2,4-oxadiazol-5-yl)ethyl)-7,10,18-trimethyl-5,8,11,15-tetraoxo-6-((3-(trifluoromethyl)-1,2,4-oxadiazol-5-yl)methyl)-2,3,4,5,6,7,8,9,10,11,12,13,14,15-tetradecahydropyrido[3,4-p][1]oxa[4,7,10,14]tetraazacycloheptadecine-13-carboxamide]
15 | 175 | 380 | COc1noc(CCNC(=O)[C@@H]2CC(=O)N(C)[C@@H](CC(C)C)C(=O)N3CCCC[C@@H]3C(=O)N[C@H](Cc3ccccc3)COc3cc(C)c4ncccc4c3C(=O)N2)n1 [Example 920, (9S,13S,19aR,22R)-22-benzyl-13-isobutyl-N-(2-(3-methoxy-1,2,4-oxadiazol-5-yl)ethyl)-2,12-dimethyl-7,11,14,20-tetraoxo-7,8,9,10,11,12,13,14,17,18,19,19a,20,21,22,23-hexadecahydro-16H-pyrido[2′,1′:6,7][1]oxa[4,7,10,14]tetraazacycloheptadecino[16,17-f]quinoline-9-carboxamide]

Source: patent US20240208992A1, “MACROCYCLES AS CFTR MODULATORS” (Idorsia Pharmaceuticals Ltd, priority 2021, published 2024)
